We go through ten compounds from PMC6747015, “Structure–function study of a novel inhibitor of the casein kinase 1 family in Arabidopsis thaliana” (Plant Direct, 2019).

pIC50: −log10 of the molar value. Entries after “also recorded” stand apart in the source; their conditions may differ. Like-named read-outs stand apart in the source and are kept apart here.

For experiment [1], the target named is T1, Recombinant CKL4 kinase (Arabidopsis thaliana, UniProt Q8LPI7).
T1 sequence (Q8LPI7 1-414): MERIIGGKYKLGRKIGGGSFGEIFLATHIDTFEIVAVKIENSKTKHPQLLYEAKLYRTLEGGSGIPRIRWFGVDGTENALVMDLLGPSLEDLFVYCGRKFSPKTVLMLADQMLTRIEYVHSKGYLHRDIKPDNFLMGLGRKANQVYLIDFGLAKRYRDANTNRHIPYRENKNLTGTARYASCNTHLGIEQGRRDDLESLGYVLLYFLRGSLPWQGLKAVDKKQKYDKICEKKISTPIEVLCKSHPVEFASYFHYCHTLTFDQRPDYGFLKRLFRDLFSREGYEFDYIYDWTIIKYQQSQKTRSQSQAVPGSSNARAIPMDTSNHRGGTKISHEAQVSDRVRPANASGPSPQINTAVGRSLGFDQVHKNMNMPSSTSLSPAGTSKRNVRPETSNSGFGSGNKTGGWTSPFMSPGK
The experiment is described as follows: In vitro phosphorylation assay of CKL4 (32P phosphorylation of casein). It counts as biochemical. How it is done: In vitro phosphorylation assays using recombinant CKL4 were performed as described previously (Uehara et al., 2019), with synthetic small molecules. IC261 and PF‐670462 were purchased (Sigma‐Aldrich catalog numbers I0658 and SML0795, respectively). PHA767491 was synthesized as previously described (Uehara et al., 2019). All chemical compounds were dissolved in dimethyl sulfoxide (DMSO) as 10 mM stock solutions. Stock solutions were diluted with DMSO to the working concentration and added to assays in kinase reaction buffer (Uehara et al., 2019).
The activities of three known CK1 inhibitors were measured in vitro by a previously reported method (Uehara et al., 2019). Recombinant CKL4 kinase, casein, ^32P‐ATP, and different concentrations of the inhibitors were combined in a reaction buffer and kept at 37°C for 2 hr. Resulting samples were separated on a polyacrylamide gel by electrophoresis, and ^32P phosphorylation of casein was measured as an indicator of CKL4 kinase activity. IC50 (half‐maximal inhibitory concentration) was determined by calculating the results from at least two independent experiments. […] The stronger in vitro CK1 inhibitory activity shown by PF‐670462 relative to PHA767491 was consistent with previous reports (Uehara et al., 2019).

The test system of experiment [2] is CCA1:LUC seedlings. Description: Bioluminescence-based circadian period lengthening in CCA1:LUC seedlings. Format: in vivo, Arabidopsis thaliana. Conditions: for Period‐lengthening activity (in words) / Concentration required for 2‐hr period lengthening (2hLC) / Concentration required for 5‐hr period lengthening (5hLC): CCA1:LUC seedlings; for Concentration required for 2‐hr period lengthening (2hLC) / Concentration required for 5‐hr period lengthening (5hLC): constant light. How it is done:
Bioluminescence‐based circadian rhythms of CCA1:LUC plants treated with small molecules were analyzed by auto‐luminescence detection (Churitsu CL96) as described previously (Uehara et al., 2019). Period length was automatically calculated as previously described (Kamioka et al., 2016).
To estimate CK1 inhibitor activity in vivo, we choose to measure circadian period‐lengthening activity in Arabidopsis seedlings. The assay was made more efficient by monitoring the circadian period using a clock reporter plant line (CCA1:LUC) and an automated luminometer. These tools can be used to measure the circadian period with high confidence, and estimates of in vivo CK1 inhibitor activity are quantitative (Uehara et al., 2019). Four‐day‐old CCA1:LUC seedlings grown under 12‐hr light/12‐hr dark conditions were treated with IC261, PF‐670462, and PHA767491 at different concentrations, and seedling luminescence was monitored under constant light conditions. Dimethyl sulfoxide (DMSO), the solvent used for all of the CK1 inhibitors, was used as a control. IC261 lengthened the circadian period of CCA1:LUC seedlings in a dose‐dependent manner (Figure 1d), with a 2‐hr period lengthening at 500 µM. PF‐670462 and PHA767491 treatment concentrations also correlated with period lengthening (Figure 1e and f). The concentrations required for 2‐hr lengthening effects were 90 µM for PF‐670472 and 47 µM for PHA767491, which was consistent with previous work (Uehara et al., 2019). Thus, PHA767491 was the strongest in vivo CK1 inhibitor among the three inhibitors tested.

Experiment [3] concerns CCA1:LUC seedlings. On the set-up: method as in Uehara et al., 2019. Conditions: ref Uehara et al., 2019; cited from earlier work.
The test system of experiment [4] is PRR7. Description: RT-qPCR of the CK1 downstream gene PRR7. Conditions: 10 and 50 µM, 6 hr. It counts as in vivo, Arabidopsis. How it is done: Arabidopsis Col‐0 seedlings that had been grown under constant light conditions for […] were immersed in 10 or 50 µM of the GSK‐3, SHAGGY‐related, and BIN2 kinase inhibitor Bikinin (SML0094, Sigma) (De Rybel et al., 2009), […], or DMSO as control for 6 hr. Three biological replicates were used for each assay. Harvested seedlings were frozen in liquid nitrogen and crushed with zirconia beads in a Tissue Lyser II, and RNA was isolated with Illustra RNAspin (25‐0500‐72, GE Healthcare). RT‐qPCR was performed as described previously (Nakamichi et al., 2010) using an Eco Real‐Time PCR System (Illumina). Gene expression was normalized against IPP2, and maximal values were set to 1. Primers for detecting IPP2, PRR7, GR60ox2, and CPD were described previously (De Rybel et al., 2009; Kamioka et al., 2016).
Because the ATSK family was identified by the molecular probe assay as potential targets of AMI‐331, even though the affinities between AMI‐331 and ATSKs were not as high as between AMI‐331 and CK1, we used the ATSK inhibitor Bikinin to determine if AMI‐331 treatment affects the expression of genes downstream of ATSKs (De Rybel et al., 2009). Four‐day‐old Arabidopsis seedlings grown under constant light conditions were treated with Bikinin or AMI‐331 for 6 hr, and mRNA extracted from seedlings samples was analyzed by RT‐qPCR.
A general note: Quantitative PCR measures a nucleic acid by following its amplification.

Experiment [5] concerns GR60ox2 and CPD. Description: RT-qPCR of the ATSK downstream genes GR60ox2 and CPD. It counts as in vivo, Arabidopsis. Conditions: 10 or 50 µM, 6 hr. How it is done:
[…] Three biological replicates were used for each assay. Harvested seedlings were frozen in liquid nitrogen and crushed with zirconia beads in a Tissue Lyser II, and RNA was isolated with Illustra RNAspin (25‐0500‐72, GE Healthcare). RT‐qPCR was performed as described previously (Nakamichi et al., 2010) using an Eco Real‐Time PCR System (Illumina). Gene expression was normalized against IPP2, and maximal values were set to 1. Primers for detecting IPP2, PRR7, GR60ox2, and CPD were described previously (De Rybel et al., 2009; Kamioka et al., 2016).
Because the ATSK family was identified by the molecular probe assay as potential targets of AMI‐331, even though the affinities between AMI‐331 and ATSKs were not as high as between AMI‐331 and CK1, […] affects the expression of genes downstream of ATSKs (De Rybel et al., 2009). […]

The subject of experiment [6] is PRR5 and TOC1. On the set-up: method as in Uehara et al., 2019. Conditions: ref Uehara et al., 2019; cited from earlier work.
The mark [7] stands for this setting: recombinant CKL4, casein, 32P‐ATP, 37°C for 2 hr, read-out: IC50 for in vitro CKL4 kinase activity.

Usually pIC50 stands for the IC50 on a negative log10 scale, so that one unit is a factor of ten. `O=C1NCCc2[nH]c(-c3ccncc3)c(Br)c21` [AMI‐23]: the pIC50 in experiment [1] (setting [7]) was 6.15. Besides, in experiment [2], the “Period‐lengthening activity (in words)” value is “Strong activities”, the “Concentration required for 2‐hr period lengthening (2hLC)” value (from here on “Concentration required … (2hLC)”) amounted to 1.5 µM and the “Concentration required for 5‐hr period lengthening (5hLC)” value came out at 5.0 µM.

Regarding `O=C1NCCc2[nH]c(-c3ccncc3)c(Cl)c21` [AMI‐24], in experiment [2], the “Period‐lengthening activity (in words)” value was “Strong activities”.

In the case of `Cl.O=C1NCCc2c1cc(-c1ccncc1)n2CCn1cccc1` [AMI‐118], the “Period‐lengthening activity (in words)” value in experiment [2] is recorded as “weak period‐lengthening activity”.

In the case of `CCn1c(-c2ccncc2)cc2c1CCNC2=O` [AMI‐126], the “Period‐lengthening activity (in words)” value in experiment [2] is “strong activity”.

Consider `C#CCn1c(-c2ccncc2)cc2c1CCNC2=O` [AMI‐212], for which, in experiment [1] (setting [7]), the pIC50 is 5.92. In experiment [2], the “Period‐lengthening activity (in words)” value is “weak period‐lengthening activity; also recorded: stronger period‐lengthening activity than AMI‐126”, the “Concentration required … (2hLC)” value is “around 7.0 µM” and the “Concentration required for 5‐hr period lengthening (5hLC)” value is reported as 26 µM. Further, the “Concentration required … (2hLC)” value in experiment [2] (listed as AMI-212) turned out to be 7.0 µM. Further, the “Period‐lengthening (in vivo inhibitory) activity relative to PHA767491” value in experiment [2] (compared with parent PHA767491) is reported as “approximately fivefold higher”.

Regarding `Cc1c(-c2ccncc2)[nH]c2c1C(=O)NCC2` [AMI‐217], in experiment [2], the “Period‐lengthening activity (in words)” value is given as “Strong activities”.

Regarding `O=C(O)CCC(=O)Nc1ccc(Br)cn1` [Bikinin, reference compound], in experiment [3], the “Period lengthening on inhibition of ATSKs” value was “did not result in period lengthening”. For the same compound, the PRR7 transcript abundance result in experiment [4] is listed as “did not affect”. Moreover, the “GR60ox2 and CPD transcript abundance” value in experiment [5] is recorded as “reduced”.

Consider `COc1cc(OC)c(C=C2C(O)=Nc3ccccc32)c(OC)c1` [IC261, reference compound], for which, in experiment [1], the pIC50 was 5.17.

Take `Nc1nccc(-c2c(-c3ccc(F)cc3)ncn2C2CCCCC2)n1` [PF‐670462, reference compound]: in experiment [1] (setting [7]), the pIC50 is 6.10.

On to `Cl.O=C1NCCc2[nH]c(-c3ccncc3)cc21` [PHA767491, 1,5,6,7‐tetrahydro‐2‐(4‐pyridinyl)‐4H‐pyrrolo[3,2‐c]pyridin‐4‐one hydrochloride], for which the “Effective concentration of PHA767491 as CK1 inhibitor in plants” value in experiment [3] was “more than 40 µM”. Also, in experiment [1] (setting [7]), the pIC50 is 5.23. In addition, the “Effective concentrations for PRR5 or TOC1 accumulation” value in experiment [6] is 250 to 500 µM.
